Values quoted from earlier work, collected in PMC9239115 (Amino acids, 2017).

Key:
[1] = degraded in the circulation by ACE; ref Rodgers et al. 2006
C6 glioma cell lines = conditions: up to 200 μM; ref Pes 2013

Row | Compound | Half-life in the circulation [1] [min] | Toxicity on C6 glioma cell lines (C6 glioma cell lines)
1 | CC[C@H](C)[C@H](NC(=O)[C@H](Cc1ccc(O)cc1)NC(=O)[C@@H](NC(=O)[C@H](CCCNC(=N)N)NC(=O)[C@@H](N)CC(=O)O)C(C)C)C(=O)N[C@@H](Cc1c[nH]cn1)C(=O)N1CCC[C@H]1C(=O)O [Ang-(1–7), Angiotensin-(1–7)] | 29 | 
2 | NC[C@H]1C[C@@H](C(=O)O)C1 [ACCA, cis-3-(Aminomethyl)cyclobutanecarboxylic acid] |  | did not show any toxicity
